This note sets out measurements from patent publication US20110305777A1, “DIMERIC IAP ANTAGONISTS” (Tetralogic Pharmaceuticals Corporation, priority 2006, published 2011).

For the first assay, the target named is XIAP BIR-3 and cIAP-1 BIR-3 (lower Kd of the two reported). The assay can be described thus: Fluorescence polarization binding to IAP-BIR3 (competition with AbuRPF-K(5-Fam)-NH2). The settings on record: Table 1; lower of the Kd for XIAP BIR-3 and cIAP-1 BIR-3. As for the experimental part: The binding affinities of the compounds listed in Table 1 to an IAP were determined substantially as described by Nikolovska-Coleska, Z. et. al. (Analytical Biochemistry (2004), vol. 332:261-273) using a variety of fluorogenic substrates and is reported as a Kd value. Briefly, various concentrations of IAP antagonists were mixed with 5 nM fluorescently labeled peptide (AbuRPF-K(5-Fam)-NH2) and 40 nM of an IAP-BIR3 for 15 min at RT in […] of 0.1M Potassium Phosphate buffer, pH 7.5 containing […] bovine g-globulin. Following incubation, the polarization values (mP) were measured on a Victor2V using a 485 nm excitation filter and a 520 nm emission filter. IC50 values were determined from the plot using nonlinear least-squares analysis using GraphPad Prism. […] The reported Kd values are the lower of the Kd for XIAP BIR-3 and cIAP-1 BIR-3.
The following compound of the invention was also made and tested. The reported Kd value is the lower of the Kd for XIAP BIR-3 and cIAP-1 BIR-3.
A general note: Fluorescence polarisation rises when a labelled molecule tumbles more slowly, as on binding a larger partner.
As a reminder, the Kd is the concentration at which binding is half-saturated. `CNC(C)C(=O)NC(C(=O)N1CCC(O)C1Cc1c(-c2[nH]c3cc(F)ccc3c2CC2C(O)CCN2C(=O)C(NC(=O)C(C)NC)C(C)OC)[nH]c2cc(F)ccc12)C(C)OC` (centres unmarked) [A]: the Kd is less than 100 nM.
The same measure, in the same setting: for `CNC(CO)C(=O)NC(C(=O)N1CCC(O)C1Cc1c(-c2[nH]c3cc(F)ccc3c2CC2C(O)CCN2C(=O)C(NC(=O)C(CO)NC)C(C)OC)[nH]c2cc(F)ccc12)C(C)OC` (centres unmarked) [B] the value was less than 100 nM.
With `CNC(C)C(=O)NC(C(=O)N1CCC(O)C1Cc1c(-c2[nH]c3cc(F)ccc3c2CC2C(O)CCN2C(=O)C(NC(=O)C(C)NC)C(C)(C)C)[nH]c2cc(F)ccc12)C(C)(C)C` (centres unmarked) [C], the Kd is less than 100 nM.
On to `CCC(NC)C(=O)NC(C(=O)N1CCC(O)C1Cc1c(-c2[nH]c3cc(F)ccc3c2CC2C(O)CCN2C(=O)C(NC(=O)C(CC)NC)C(C)(C)C)[nH]c2cc(F)ccc12)C(C)(C)C` (centres unmarked) [D], for which the Kd is less than 100 nM.
On the same count and under the same terms, under `CCNC(C)C(=O)NC(C(=O)N1CCC(O)C1Cc1c(-c2[nH]c3cc(F)ccc3c2CC2C(O)CCN2C(=O)C(NC(=O)C(C)NCC)C(C)OC)[nH]c2cc(F)ccc12)C(C)OC` (centres unmarked) [E] stands less than 100 nM.
Still for that read-out and setting: for `CCC(NC)C(=O)NC(C(=O)N1CCC(O)C1Cc1c(-c2[nH]c3cc(F)ccc3c2CC2C(O)CCN2C(=O)C(NC(=O)C(CC)NC)C(C)OC)[nH]c2cc(F)ccc12)C(C)OC` (centres unmarked) [F] the value was less than 100 nM.
The compound `CNC(C)C(=O)NC(C(=O)N1CCC(OC)C1Cc1c(-c2[nH]c3cc(F)ccc3c2CC2C(OC)CCN2C(=O)C(NC(=O)C(C)NC)C(C)OC)[nH]c2cc(F)ccc12)C(C)OC` (centres unmarked) [G] registered a Kd of less than 100 nM.
Regarding `CCC(NC)C(=O)NC(C(=O)N1CCC(OC)C1Cc1c(-c2[nH]c3cc(F)ccc3c2CC2C(OC)CCN2C(=O)C(NC(=O)C(CC)NC)C(C)OC)[nH]c2cc(F)ccc12)C(C)OC` (centres unmarked) [H], the equilibrium dissociation constant (Kd) is less than 100 nM.
Still for that read-out and setting: for `CNC(C)C(=O)NC(C(=O)N1CCC(OC)C1Cc1c(-c2[nH]c3cc(F)ccc3c2CC2C(OC)CCN2C(=O)C(NC(=O)C(C)NC)C(C)(C)C)[nH]c2cc(F)ccc12)C(C)(C)C` (centres unmarked) [I] the value was less than 100 nM; for `CCC(NC)C(=O)NC(C(=O)N1CCC(OC)C1Cc1c(-c2[nH]c3cc(F)ccc3c2CC2C(OC)CCN2C(=O)C(NC(=O)C(CC)NC)C(C)(C)C)[nH]c2cc(F)ccc12)C(C)(C)C` (centres unmarked) [J], 100 to 1000 nM.
For `CCNC(C)C(=O)NC(C(=O)N1CCC(OC)C1Cc1c(-c2[nH]c3cc(F)ccc3c2CC2C(OC)CCN2C(=O)C(NC(=O)C(C)NCC)C(C)OC)[nH]c2cc(F)ccc12)C(C)OC` (centres unmarked) [K], the Kd was less than 100 nM.
The compound `CCNC(C)C(=O)NC(C(=O)N1CCC(OC)C1Cc1c(-c2[nH]c3cc(F)ccc3c2CC2C(OC)CCN2C(=O)C(NC(=O)C(C)NCC)C(C)(C)C)[nH]c2cc(F)ccc12)C(C)(C)C` (centres unmarked) [L] gave a Kd of less than 100 nM.
Still for that read-out and setting: under `CNC(C)C(=O)NC(C(=O)N1CCC(C)C1Cc1c(-c2[nH]c3cc(F)ccc3c2CC2C(C)CCN2C(=O)C(NC(=O)C(C)NC)C(C)OC)[nH]c2cc(F)ccc12)C(C)OC` (centres unmarked) [M] stands less than 100 nM.

The same assay, now with this note: Table 4; lower of the Kd for XIAP BIR-3 and cIAP-1 BIR-3.
`CNC(C)(C)C(=O)NC(C(=O)N1CC(O)CC1Cc1c(-c2[nH]c3cc(F)ccc3c2CC2CC(O)CN2C(=O)C(NC(=O)C(C)(C)NC)C(C)OC)[nH]c2cc(F)ccc12)C(C)OC` (centres unmarked) [N] yielded a Kd of 100 to 1000 nM.
